Source: PMC10095345, “The Role of Tyr-His-Trp Triad and Water Molecule Near the N1-Atom of 2-Hydroperoxycoelenterazine in Bioluminescence of Hydromedusan Photoproteins: Structural and Mutagenesis Study” (International Journal of Molecular Sciences, 2023)

How the values were obtained:
aequorin (AV_wt) = molecular target: T1, aequorin (AV_wt) (Aequorea victoria, UniProt P07164); experiment: Ca2+-triggered bioluminescence of charged photoprotein, luminometer; format: biochemical; conditions: 2 mM CaCl2, 50 mM Tris-HCl pH 8.5, 23 C; bound as 2-hydroperoxycoelenterazine
T1 construct: apo-aequorin with N-terminus truncated by six residues, from pET22-A7 in E. coli BL21-Gold (DE3) Codon Plus (RIPL), charged with coelenterazine
T1 sequence (P07164 7-196 limits assumed): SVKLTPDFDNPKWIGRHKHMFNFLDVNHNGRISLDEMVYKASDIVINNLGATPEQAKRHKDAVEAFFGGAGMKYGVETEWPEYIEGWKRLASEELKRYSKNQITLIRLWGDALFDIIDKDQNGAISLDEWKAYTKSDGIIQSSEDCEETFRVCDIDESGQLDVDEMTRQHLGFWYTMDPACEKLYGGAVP

obelin (OL_wt) = molecular target: T2, obelin (OL_wt) (Obelia longissima, UniProt Q27709); experiment: as above; format: biochemical; conditions: 2 mM CaCl2, 50 mM Tris-HCl pH 8.5, 23 C; bound as 2-hydroperoxycoelenterazine
T2 construct: full-length apo-obelin from pET19-OL8 in E. coli BL21-Gold (DE3) Codon Plus (RIPL), charged with coelenterazine; 195 residues
T2 sequence (Q27709 whole entry): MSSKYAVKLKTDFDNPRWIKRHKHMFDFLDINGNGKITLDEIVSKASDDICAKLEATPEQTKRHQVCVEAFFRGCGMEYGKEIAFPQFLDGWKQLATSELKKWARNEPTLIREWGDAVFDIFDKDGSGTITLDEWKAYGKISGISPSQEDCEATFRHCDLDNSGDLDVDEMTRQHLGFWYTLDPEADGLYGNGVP

Oc1ccc(Cc2nc3c(Cc4ccccc4)nc(-c4ccc(O)cc4)cn3c2O)cc1 [coelenterazine]
Ca2+-triggered bioluminescence of charged photoprotein, luminometer (aequorin (AV_wt)): Obelin and aequorin as well as their mutants were purified and activated with coelenterazine | Ca2+-triggered bioluminescence of charged photoprotein, luminometer (obelin (OL_wt)): Obelin and aequorin as well as their mutants were purified and activated with coelenterazine
